Laboratory results published in publication PMC6864445, “New Molecular Insights into the Inhibition of Dipeptidyl Peptidase-4 by Natural Cyclic Peptide Oxytocin” (Molecules, 2019).

Assays:
DPP4 = details: cited from earlier work; for IC50: read-out: IC50 (uM), peptides as DPP4 inhibitors, Supplementary Table S1
[1] = target: T1, human dipeptidyl peptidase-4 (DPP4) (Homo sapiens, UniProt P27487); test: DPP4 inhibitor screening kit fluorescence assay (H-Gly-Pro-AMC cleavage); assay type: biochemical; details: n = 3
T1 construct: purchased Sigma Aldrich
Protocol: Oxytocin peptide was purchased from the company Parfarm S.A (District Federal, Mexico), and human dipeptidyl peptidase-4 inhibitor screening kit, Black-well 96 well plate for fluorescence assays were purchased from Sigma Aldrich (St. Louis, MO, USA).
The experimental studies were carried out using the human DPP4 inhibitor screening kit to validate the computational results. Briefly, the pure protein DPP4 cleaves non-fluorescence substrate H-Gly-Pro-AMC and releases fluorescence product AMC whose fluorescence emissions, λex = 360 nm and λem = 460 nm on each well, were recorded in a kinetic mode for 30 min using microplate reader Thermo Scientific Varioskan Flash Multimode Reader by Thermo Scientific. The relative percent of inhibition was calculated using Equation (1), where df/dt denotes changes in fluorescence with time. The graphs were plotted for all experiments (n = 3) using Graph Pad software. All groups were compared with p < 0.05 as statistically significant. To obtain the p-value, an ordinary one-way ANOVA unpaired t-test was applied using Graph Pad software (San Diego, CA, USA). All the data in graphs are expressed as mean ± S.D:(1) % Relative inhibition=(df/dt)DPP4 enzyme−(df/dt)(DPP4−OXT peptide)/(df/dt)DPP4 enzyme×100

T1 sequence (P27487 whole entry): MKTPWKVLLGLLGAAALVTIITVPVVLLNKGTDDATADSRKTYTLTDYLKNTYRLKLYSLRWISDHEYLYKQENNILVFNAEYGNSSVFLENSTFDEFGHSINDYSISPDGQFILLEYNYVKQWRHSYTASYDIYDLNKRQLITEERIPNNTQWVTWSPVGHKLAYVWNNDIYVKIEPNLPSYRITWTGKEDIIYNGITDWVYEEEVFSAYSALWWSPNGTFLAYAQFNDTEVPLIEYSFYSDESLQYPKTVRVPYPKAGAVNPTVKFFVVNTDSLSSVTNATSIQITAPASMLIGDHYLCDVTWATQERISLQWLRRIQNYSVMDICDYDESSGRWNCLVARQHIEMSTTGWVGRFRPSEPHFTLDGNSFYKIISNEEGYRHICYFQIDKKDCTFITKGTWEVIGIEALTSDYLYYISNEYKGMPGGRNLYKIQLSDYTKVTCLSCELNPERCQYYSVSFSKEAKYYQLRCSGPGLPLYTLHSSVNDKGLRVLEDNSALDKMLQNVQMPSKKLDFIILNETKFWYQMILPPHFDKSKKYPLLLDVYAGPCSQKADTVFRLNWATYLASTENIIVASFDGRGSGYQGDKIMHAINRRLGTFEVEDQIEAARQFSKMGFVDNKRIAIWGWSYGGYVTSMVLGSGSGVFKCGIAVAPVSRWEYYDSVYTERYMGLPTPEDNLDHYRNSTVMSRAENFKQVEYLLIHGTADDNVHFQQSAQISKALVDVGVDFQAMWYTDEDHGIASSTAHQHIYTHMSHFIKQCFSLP

For IPIQY, the IC50 (DPP4) is given as 26.7 µM.
For Diprotin A, the “IC50 of DPP4” value (DPP4; peptide isolated from culture of Bacillus cereus) is given as 2.9 mg/mL and the IC50 (DPP4) is given as 2.9 µM.
In the case of FPGPIPD, the IC50 (DPP4) is listed as 260 µM.
For IPAVF, the IC50 (DPP4) is listed as 44.7 µM.
In the case of YPYY, the IC50 (DPP4) is listed as 208 µM.
In the case of GPAG, the IC50 (DPP4) is given as 41.1 µM.
Work on `CC[C@H](C)[C@@H]1NC(=O)[C@H](Cc2ccc(O)cc2)NC(=O)[C@@H](N)CSSC[C@@H](C(=O)N2CCC[C@H]2C(=O)N[C@@H](CC(C)C)C(=O)NCC(N)=O)NC(=O)[C@H](CC(N)=O)NC(=O)[C@H](CCC(N)=O)NC1=O` [oxytocin] yielded an inhibition at 0.002 µM ([1]; 2 nM oxytocin, mean, read-out: relative percent inhibition of DPP4) of 6.3%, an inhibition at 0.019 µM ([1]; 19 nM oxytocin, mean, read-out: relative percent inhibition of DPP4) of 44.5% and an inhibition at 0.28037 µM ([1]; 280.37 nM oxytocin, mean, read-out: relative percent inhibition of DPP4) of 61.6%. For the same compound, the inhibition at 0.85047 µM ([1]; 850.47 nM oxytocin, mean, read-out: relative percent inhibition of DPP4) was 75.4%, the inhibition at 1.6 µM ([1]; 1600 nM oxytocin, mean, read-out: relative percent inhibition of DPP4) was 81.2% and the IC50 ([1]; fluorescence assay, substrate H-Gly-Pro-AMC, λex 360 nm / λem 460 nm, kinetic mode 30 min, dose-response curve in Figure S1, read-out: inhibitory concentration IC50 of DPP4) was 111 nM.
In the case of LPYPY, the IC50 (DPP4) is listed as 90.8 µM.
In the case of GPGA, the IC50 (DPP4) is listed as 41.9 µM.
In the case of LPQNIPP, the IC50 (DPP4) is listed as 160 µM.
In the case of LPLPL, the IC50 (DPP4) is listed as 358 µM.
For IPIY, the IC50 (DPP4) is listed as 35.2 µM.
In the case of PGPIHDS, the IC50 (DPP4) is listed as 1000 µM.
